Test system: 777334-354-R2-J4-PDC tumor spheroids with HUVEC/MSC, viability
Assay: Anticancer human tumor 777334-354-R2-J4-PDC patient-derived pancreatic adenocarcinoma cell line growth inhibition [GQUAD]
Conditions: for IC50: curve of first compound; for viability, T/C: stronger effect = lower value; active = viability on the fitted dose curve at most 10% of control; inactive = the rest
In short: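 Tumor cells were grown as complex spheroids with HUVEC endothelial cells and mesenchymal stem cells as stroma. G-quadruplex stabilizers were combined with targeted agents over half-log dilutions from near the clinical Cmax, or from 10 microM.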

[1] = second compound 0.0316 µM, first compound 0.0316 µM
[2] = second compound 0.0316 µM, first compound 0.1 µM
[3] = second compound 0.0316 µM, first compound 0.316 µM
[4] = second compound 0.0316 µM, first compound 1 µM
[5] = second compound 0.0316 µM, first compound 3.16 µM
[6] = second compound 0.0316 µM, first compound 10 µM
[7] = second compound 0.1 µM, first compound 0.0316 µM
[8] = second compound 0.1 µM, first compound 0.1 µM
[9] = second compound 0.1 µM, first compound 0.316 µM
[10] = second compound 0.1 µM, first compound 1 µM
[11] = second compound 0.1 µM, first compound 3.16 µM
[12] = second compound 0.1 µM, first compound 10 µM
[13] = second compound 0.316 µM, first compound 0.0316 µM
[14] = second compound 0.316 µM, first compound 0.1 µM
[15] = second compound 0.316 µM, first compound 0.316 µM
[16] = second compound 0.316 µM, first compound 1 µM
[17] = second compound 0.316 µM, first compound 3.16 µM
[18] = second compound 0.316 µM, first compound 10 µM
[19] = second compound 1 µM, first compound 0.0316 µM
[20] = second compound 1 µM, first compound 0.1 µM
[21] = second compound 1 µM, first compound 0.316 µM
[22] = second compound 1 µM, first compound 1 µM
[23] = second compound 1 µM, first compound 3.16 µM
[24] = second compound 1 µM, first compound 10 µM
[25] = second compound 3.16 µM, first compound 0.0316 µM
[26] = second compound 3.16 µM, first compound 0.1 µM
[27] = second compound 3.16 µM, first compound 0.316 µM
[28] = second compound 3.16 µM, first compound 1 µM
[29] = second compound 3.16 µM, first compound 3.16 µM
[30] = second compound 3.16 µM, first compound 10 µM
[31] = second compound 10 µM, first compound 0.0316 µM
[32] = second compound 10 µM, first compound 0.1 µM
[33] = second compound 10 µM, first compound 0.316 µM
[34] = second compound 10 µM, first compound 1 µM
[35] = second compound 10 µM, first compound 3.16 µM
[36] = second compound 10 µM, first compound 10 µM
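Note: spheroids exposed to compounds for 7 days before readout.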

COc1cc(C2c3cc4c(cc3C(OC3OC5COC(C)OC5C(O)C3O)C3COC(=O)C23)OCO4)cc(OC)c1O (stereo unspecified) + Cc1cnc(CNC(=O)c2c(=O)c3ccc(N4CCCN(C)CC4)nc3n3c2sc2ccccc23)cn1
2.91 µM: IC50 (second compound 10 µM)
6.18 µM: IC50 (second compound 0.0316 µM)
3.71 µM: IC50 (second compound 0.316 µM)
4.44 µM: IC50 (second compound 0.1 µM)
2.49 µM: IC50 (second compound 3.16 µM)
inactive: viability, T/C [1] 94.8% | viability, T/C [2] 90.6% | viability, T/C [3] 85.2% | viability, T/C [4] 70.9% | viability, T/C [5] 54.7% | viability, T/C [6] 46.6% | viability, T/C [7] 84.6% | viability, T/C [8] 78.5% | viability, T/C [9] 79.6% | viability, T/C [10] 73.4% | viability, T/C [11] 56.1% | viability, T/C [12] 34.9% | viability, T/C [13] 79.3% | viability, T/C [14] 85% | viability, T/C [15] 77% | viability, T/C [16] 72.7% | viability, T/C [17] 51.4% | viability, T/C [18] 39.7% | viability, T/C [19] 68.4% | viability, T/C [20] 75.2% | viability, T/C [21] 76.1% | viability, T/C [22] 64% | viability, T/C [23] 60% | viability, T/C [24] 37.5% | viability, T/C [25] 57.1% | viability, T/C [26] 64.5% | viability, T/C [27] 61.6% | viability, T/C [28] 61.1% | viability, T/C [29] 47.1% | viability, T/C [30] 40.7% | viability, T/C [31] 58.6% | viability, T/C [32] 57.3% | viability, T/C [33] 55.2% | viability, T/C [34] 52% | viability, T/C [35] 51.5% | viability, T/C [36] 34.7%
5.14 µM: IC50 (second compound 1 µM)

Nc1ccn(C2OC(CO)C(O)C2(F)F)c(=O)n1 (stereo unspecified) + Cc1cnc(CNC(=O)c2c(=O)c3ccc(N4CCCN(C)CC4)nc3n3c2sc2ccccc23)cn1
1.2 µM: IC50 (second compound 0.316 µM)
inactive: viability, T/C [1] 81.2% | viability, T/C [2] 61.2% | viability, T/C [3] 69.1% | viability, T/C [4] 46.3% | viability, T/C [5] 39.1% | viability, T/C [6] 31.6% | viability, T/C [7] 85.4% | viability, T/C [8] 64.5% | viability, T/C [9] 60.8% | viability, T/C [10] 45.7% | viability, T/C [11] 37.5% | viability, T/C [12] 32.7% | viability, T/C [13] 81.5% | viability, T/C [14] 72.5% | viability, T/C [15] 55.5% | viability, T/C [16] 51.7% | viability, T/C [17] 47.8% | viability, T/C [18] 31.6% | viability, T/C [19] 67.9% | viability, T/C [20] 58.2% | viability, T/C [21] 46.4% | viability, T/C [22] 45.2% | viability, T/C [23] 41.1% | viability, T/C [24] 30.2% | viability, T/C [25] 61.1% | viability, T/C [26] 64% | viability, T/C [27] 48.4% | viability, T/C [28] 43.9% | viability, T/C [29] 43.6% | viability, T/C [30] 30.5% | viability, T/C [31] 57.3% | viability, T/C [32] 48.3% | viability, T/C [33] 48.7% | viability, T/C [34] 40.4% | viability, T/C [35] 41.6% | viability, T/C [36] 27%
0.334 µM: IC50 (second compound 1 µM)
0.18 µM: IC50 (second compound 10 µM)
0.975 µM: IC50 (second compound 0.0316 µM)
0.503 µM: IC50 (second compound 3.16 µM)
0.679 µM: IC50 (second compound 0.1 µM)

O=c1[nH]cc(F)c(=O)[nH]1 + Cc1cnc(CNC(=O)c2c(=O)c3ccc(N4CCCN(C)CC4)nc3n3c2sc2ccccc23)cn1
inactive: viability, T/C [1] 97.7% | viability, T/C [2] 94.8% | viability, T/C [3] 91.9% | viability, T/C [4] 87.9% | viability, T/C [5] 69.5% | viability, T/C [6] 64.5% | viability, T/C [7] 82.4% | viability, T/C [8] 84.8% | viability, T/C [9] 89% | viability, T/C [10] 80.1% | viability, T/C [11] 82% | viability, T/C [12] 68.3% | viability, T/C [13] 85.3% | viability, T/C [14] 82.8% | viability, T/C [15] 73.8% | viability, T/C [16] 75.8% | viability, T/C [17] 74.7% | viability, T/C [18] 66.5% | viability, T/C [19] 71.3% | viability, T/C [20] 66.8% | viability, T/C [21] 68% | viability, T/C [22] 67.7% | viability, T/C [23] 73.2% | viability, T/C [24] 65.7% | viability, T/C [25] 59.4% | viability, T/C [26] 73.2% | viability, T/C [27] 67.3% | viability, T/C [28] 61.6% | viability, T/C [29] 68.8% | viability, T/C [30] 56% | viability, T/C [31] 57.7% | viability, T/C [32] 61.9% | viability, T/C [33] 59% | viability, T/C [34] 59.7% | viability, T/C [35] 50.8% | viability, T/C [36] 51.8%
> 10 µM: IC50 (second compound 0.0316 µM) | IC50 (second compound 0.1 µM) | IC50 (second compound 0.316 µM) | IC50 (second compound 1 µM) | IC50 (second compound 3.16 µM) | IC50 (second compound 10 µM)

Source: PubChem BioAssay AID2060499 (Molecular Pharmacology Branch, DTP, NCI, 2025)
